Test results published in the supplement of paper PMC10307832.

Legend:
Assay in all cases: relative viability (nuclei count vs DMSO), 5 days (fraction); higher = more cells survive
[1] = compound: Nc1nc(Nc2ccc3c(c2)CC[C@@H](N2CCCC2)CC3)nn1-c1cc2c(nn1)-c1ccccc1CCC2 [Bemcentinib] + NC(=O)Nc1cc(-c2cccc(F)c2)sc1C(=O)N[C@H]1CCCNC1 [AZD7762] (partner 0.2 µM)
Summary of the method: (§1)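 Lung cancer cell lines, seeded in 1536-well plates, were treated the following day by pin tool with a single drug or with five library-drug doses (not always all listed) in √10 steps on top of a fixed anchor-drug dose. Cells were fixed and nuclei stained in one step after 5 days, and nuclei were counted. Relative viability is the nuclei count for treated wells divided by that for vehicle wells, reported as medians of duplicate plates.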

[2] = compound: Nc1nc(Nc2ccc3c(c2)CC[C@@H](N2CCCC2)CC3)nn1-c1cc2c(nn1)-c1ccccc1CCC2 [Bemcentinib] + O=C(c1cc(Cc2n[nH]c(=O)c3ccccc23)ccc1F)N1CCN(C(=O)C2CC2)CC1 [Olaparib] (partner 8 µM)
Summary of the method: as §1

[3] = compound: CNC(=O)c1ccccc1Sc1ccc2c(/C=C/c3ccccn3)n[nH]c2c1 [Axitinib] + CC(=O)Nc1cccc(-n2c(=O)n(C3CC3)c(=O)c3c(Nc4ccc(I)cc4F)n(C)c(=O)c(C)c32)c1 [Trametinib] (partner 0.02 µM)
Summary of the method: as §1

[4] = compound: CC1=CC=C(C=C1)C(=O)CN2C3=C(CCCC3)SC2=N [Pifithrin_alpha] + CC(=O)Nc1cccc(-n2c(=O)n(C3CC3)c(=O)c3c(Nc4ccc(I)cc4F)n(C)c(=O)c(C)c32)c1 [Trametinib] (partner 0.02 µM)
Summary of the method: as §1

Cell Line	relative viability ([1]; first compound 0.1265 µM)	relative viability ([1]; first compound 0.4 µM)	relative viability ([1]; first compound 1.265 µM)	relative viability ([1]; first compound 4 µM)	relative viability ([2]; first compound 0.1265 µM)	relative viability ([2]; first compound 0.4 µM)	relative viability ([2]; first compound 1.265 µM)	relative viability ([2]; first compound 4 µM)	relative viability ([3]; first compound 0.005 µM)	relative viability ([3]; first compound 0.01581 µM)	relative viability ([3]; first compound 0.05 µM)	relative viability ([3]; first compound 0.1581 µM)	relative viability ([3]; first compound 0.5 µM)	relative viability ([4]; first compound 3.162 µM)	relative viability ([4]; first compound 10 µM)	relative viability ([4]; first compound 100 µM)	relative viability ([1]; first compound 0.04 µM)	relative viability ([2]; first compound 0.04 µM)	relative viability ([4]; first compound 1 µM)	relative viability ([4]; first compound 31.62 µM)
NCI-H1395	0.404	0.425	0.406	0.366	0.474	0.462	0.497	0.463	1	0.789	0.941	0.911	1.02	1.03	1.11	1.19				
NCI-H1437	1.12	1.13	1.15	1.09	0.656	0.718	0.651	0.592	0.634	0.488	0.557	0.554	0.519	0.491	0.355	0.264	1.09	0.639	0.532	0.336
NCI-H1648	0.613	0.709	0.572	0.638	0.925	0.746	0.777	0.695	0.622	0.553	0.335	0.525	0.509	0.332	0.453	0.422	0.579	1.3	0.487	0.48
NCI-H1651	0.504	0.491	0.536	0.455	0.204	0.187	0.189	0.191	0.9	0.84	0.744	0.797	0.826	0.821	0.863	0.958	0.506	0.201	0.833	0.851
NCI-H1666	0.91	0.867	0.768	0.704	0.887	0.731	0.713	0.713	0.904	0.868	0.863	0.847	0.873	0.737	0.791	0.494	0.95	0.742	0.8	0.706
NCI-H1734	0.611	0.613	0.518	0.441	0.754	0.649	0.603	0.642	0.676	0.549	0.608	0.686	0.669	0.769	0.648	0.666	0.516	0.634	0.716	0.623
NCI-H1755	0.704	0.439	0.434	0.469	0.868	0.929	0.951	0.935	0.806	0.764	0.786	0.822	0.789	0.682	0.706	0.738	0.47	0.92	0.724	0.694
NCI-H1792	0.888	0.681	0.442	0.669	0.353	0.538	0.391	0.498	0.618	0.363	0.499	0.494	0.498	0.389	0.432	0.316	0.577	0.496	0.498	
NCI-H1793	0.498	0.407	0.19	0.23	1.16	0.987	0.961	0.842	0.382	0.374	0.469	0.408	0.447	0.371	0.365	0.437	0.617	0.852	0.419	0.496
NCI-H1915	0.695	0.701	0.726	0.652	0.242	0.243	0.232	0.26	0.34	0.299	0.312	0.298	0.33	0.296	0.302	0.308	0.671	0.282	0.291	
NCI-H1944	0.563	0.488	0.452	0.32	0.414	0.418	0.436	0.424	0.562	0.388	0.451	0.39	0.434	0.358	0.368	0.374	0.645	0.413	0.395	0.319
NCI-H1975	0.702	0.67	0.687	0.656	0.954	0.951	0.849	0.749	0.44	0.361	0.325	0.348	0.328	0.29	0.232	0.252	0.691	0.803	0.251	0.275
NCI-H1993	1.01	1.06	0.9	0.658	1.23	1	1.15	1.16	0.433	0.373	0.535	0.503	0.506	0.418	0.508	0.4	0.778	1.05	0.485	0.397
NCI-H2085	1.03	0.863	0.767	0.748	0.707	0.768	0.755	0.741	0.561	0.496	0.56	0.546	0.548	0.444	0.461	0.445	0.956	0.747	0.452	0.463
